Data on three compounds can be found in ChEMBL document CHEMBL1151615, “Trichothecenes, 1: The synthesis of 4-deoxyverrucarol from verrucarol and diacetoxyscirpenol” (J Nat Prod, 1984).

Series [1] in a line: Toxicity in mouse assessed as 50% inhibition of protein synthesis. To be noted: in vivo, read-out: Activity. It counts as organism-based.
For another series, the species on record is Mus musculus. The series can be described thus: Skin toxicity in mouse. As to conditions: in vivo. It counts as organism-based.

Values after ≈ are worked out from the molar mass of the structure shown.

`CC1=C[C@H]2O[C@@H]3CC[C@](C)([C@@]2(CO)CC1)[C@]31CO1` [DEOXYVERRUCAROL]: in series [1], the IC50 is 62.2 µg/mL (≈ 248 µM). Besides, the MED entry in the series filed under Mus musculus was “>= 500 ng”.

Consider `CC(=O)OC[C@]12C[C@H](OC(=O)CC(C)C)C(C)=C[C@H]1O[C@@H]1[C@H](O)[C@@H](OC(C)=O)[C@@]2(C)[C@]12CO2` [T-2 TOXIN], for which, in series [1], the IC50 is 0.005 µg/mL (≈ 0.0107 µM). This compound showed an MED in the series listed under Mus musculus of 50.2 ng.

As for `CC1=C[C@H]2O[C@@H]3C[C@@H](O)[C@](C)([C@@]2(CO)CC1)[C@]31CO1` [VERRUCAROL], in series [1], the IC50 was 15.8 µg/mL (≈ 59.3 µM). In the series listed under Mus musculus, the MED result is recorded as “>= 500 ng”.
